The text below walks through data of patent US9463186B2, “Treatment for dopaminergic disorders” (Northwestern University, priority 2013, dated 2016).

Each structure is given as a SMILES string. Entries after “also recorded” stand apart in the source; their conditions may differ.

For assay [1], the system named is L-type calcium channels (Cav1.3) of SNc dopaminergic neurons. The experiment in a line: Whole cell patch clamp recordings of dopaminergic neurons in brain slices (Example 2). It is filed as cell-based, mouse. As to conditions: for inhibition of L-type calcium channels: dihydropyridine antagonists, brain slice, FIG. 1 and FIG. 4.
In assay [2] the test system is SNc DA neurons. The experiment in a line: Mito-roGFP imaging of mitochondrial oxidant stress after chronic drug treatment by s.c. osmotic minipumps. The assay is classed as in vivo, mice. As to conditions: for dose dependence of the effect of chronic administration on mitochondrial oxidant stress: 1 week via s.c. osmotic minipump, isradipine 0.03, 0.3, 3 mg/kg/day, rasagiline 1 and 3 mg/kg/day, FIG. 8; for mitochondrial oxidant stress in SNc dopaminergic neurons, chronic treatment: chronic (1 week) s.c. osmotic minipumps, FIG. 7d.

Assay [3] has as its system SNc dopaminergic neurons. As to conditions: brain slice taken following rasagiline treatment; FIG. 6.
For assay [4], the system named is SNc DA neurons. As to conditions: acute treatment at the time of measurement; FIG. 7c-d.
The subject of assay [5] is SNc dopaminergic neurons. As to conditions: Fluo4 and 2PLSM; FIG. 6.

Turning to `NC1=N[C@H](O)[C@H]2[C@H]3O[C@]4(O)O[C@@H]([C@@H](O)[C@@]2(N1)[C@@H]4O)[C@]3(O)CO` [tetrodotoxin], the “spikes and underlying oscillations that drive pacemaking” value in assay [1] was “eliminates spikes but not the underlying oscillations”.
`COC(=O)C1=C(C)NC(C)=C(C(=O)OC(C)C)C1c1cccc2nonc12` (stereo not drawn) [isradipine, 3,5-pyridinedicarboxylic acid, 4-(4-benzofurazanyl)-1,4-dihydro-2,6-dimethyl-, methyl 1-methylethyl ester]: the “pacemaking during sustained blockade of Cav1.3 channels” value in assay [1] (adult SNc dopaminergic neuron, before, during and after application, FIG. 4) was “restores pacemaking and dopaminergic neuron cell function through an altered pacemaking mechanism”. The “inhibition of L-type calcium channels” value in assay [1] was “inhibited”. Further, in the assay on SNc DA neurons [2], the “dose dependence of the effect of chronic administration on mitochondrial oxidant stress” value was “dose-dependent” and the “mitochondrial oxidant stress in SNc dopaminergic neurons, chronic treatment” value is “diminished”.
For `COCCOC(=O)C1=C(C)NC(C)=C(C(=O)OC(C)C)C1c1cccc([N+](=O)[O-])c1` (stereo not drawn) [nimodipine, isopropyl 2-methoxyethyl 1,4-dihydro-2,6-dimethyl-4-(m-nitrophenyl)-3,5-pyridinedicarboxylate], the “inhibition of L-type calcium channels” value in assay [1] is listed as “inhibited”. In addition, the “autonomous pacemaking of dopaminergic neurons” value in assay [1] (tissue slice from an adult, FIGS. 1a-d) is recorded as “inhibits autonomous pacemaking”.
As for `C#CCN[C@@H]1CCc2ccccc21` [rasagiline], the “pacemaking of SNc dopaminergic neurons” value with SNc dopaminergic neurons [3] is on record as “no effect on pacemaking”. Besides, in the assay with SNc DA neurons [2], the “dose dependence of the effect of chronic administration on mitochondrial oxidant stress” value is given as “dose-dependent” and the “mitochondrial oxidant stress in SNc dopaminergic neurons, chronic treatment” value is on record as “diminished; also recorded: further lowers stress”. Further, in the assay with SNc DA neurons [4], the “mitochondrial oxidant stress in SNc dopaminergic neurons, acute treatment” value is given as “lowers mitochondrial oxidant stress”. The “calcium entry linked to pacemaking (intracellular calcium oscillations)” value in the assay with SNc dopaminergic neurons [5] was “no effect”.
